System: HepG2 tumors
Assay: Anti-tumor efficacy in HepG2-tumor bearing nude mice
Type: in vivo, nu/nu BALB/c nude mice
Conditions: s.c. HepG2 tumors, i.v. 1 mg/kg dox equivalents every other day from day 2, tumor volume, FIG. 4
Experimental: Nude mice were inoculated s.c. with 4×10^6 HepG2 cells on day 0. On day 2, groups of five mice were injected intravenously with 1 mg/kg dox equivalents of D, DL or DLG. The control group received injections of saline (S). Injections were carried out every other day. The tumor size was measured weekly and the volume calculated using the formula 0.52×L×W×H. Each point represents the mean volume from each group of 5 mice.
Nude mice were inoculated s.c. with 4×10^6 HepG2 cells on day 0. On day 2, groups of five mice were injected intravenously with 1 mg/kg dox equivalents of D, DL or DLG. The control group received injections of saline. Injections were carried out every other day. All mice were sacrificed on day 35. The tumors were removed and weighted. Each column represents the mean ±s.d. (n=5). *p<0.05 statistically significant difference as compared to control (student's t-test).
Nude mice (body weight 20–25 g; 6–8 weeks) were inoculated subcutaneously (s.c.) with a suspension of HepG2 cells (4×10^6/mouse) on Day 0. On Day 2, groups of five mice were injected intravenously with 1 mg/kg equivalents of D, DL or DLG. The Control group received injections of saline. Injections were carried out every other day. Tumor volume was continuously monitored using a Vernier caliper. Measurements were taken weekly and volumes were calculated according to the formula (L×W×H×0.52). […]

COc1cccc2c1C(=O)c1c(O)c3c(c(O)c1C2=O)C[C@@](O)(C(=O)CO)C[C@@H]3O[C@H]1C[C@H](N)[C@H](O)[C@H](C)O1.Cl [D, doxorubicin hydrochloride]
tumor growth inhibition: about 40%
